# In US20230365602A1, “COMPOUND FOR USE IN THE TREATMENT OF PROTOZOAL DISEASES AND PROCESS FOR PRODUCTION OF SAID COMPOUND” (QUADREL S.R.L., priority 2020, published 2023):
# Entries after “also recorded” stand apart in the source; their conditions may differ. Read-outs that look alike come from different tables or passages of the source.
# Experiments:
# [1] = Toxicity MTT assay in PMA-differentiated THP-1 cells; format: cell-based, human; conditions: human, PMA-differentiated THP-1 cells (macrophages); for CC50: THP-1 macrophages, Table 1, read-out: Toxicity CC50 ± SD or NOAEL; for IC50: Table 4b, read-out: Cytotoxicity THP-1 (IC50)
# Text: (§1) The in vitro antiparasitic activity against L. infantum (MHOM/MA/67/ITMAP-263) and the toxicity against THP-1 macrophages is presented in Table 1.
# CYP2C9 = CYP2C9 (Homo sapiens, UniProt P11712); test: Early toxicity: CYP2C9 inhibition; format: in vitro ADME; conditions: mean ± SD, Table 4a; for inhibition at 10 µM: human
# [2] = system: L. infantum (MHOM/MA/67/ITMAP-263) intracellular amastigotes; test: Anti-parasitic activity against L. infantum intracellular amastigotes (infection with axenic amastigotes luciferase positive); format: cell-based; conditions: Table 1; for inhibition at 10 µM / IC50: Leishmania infantum; for inhibition at 10 µM: read-out: Single Dose Assay 10 μM Mean Inhibitory Activity (%) ± SD; for IC50: read-out: Dose Response Curves IC50 ± SD; for Selectivity Index CC50/IC50 or NOAEL/IC50: THP-1 toxicity / L. infantum IC50
# CYP2D6 = CYP2D6 (Homo sapiens, UniProt P10635); test: Early toxicity: CYP2D6 inhibition; format: in vitro ADME; conditions: Table 4a; for inhibition at 10 µM: human
# mitochondria = test: Early toxicity: mitochondrial toxicity; format: cell-based; conditions: for % mitochondrial toxicity: 10 μM, 100% mitotoxic, 0% not mitotoxic; for mitochondrial toxicity: Table 4b
# CYP2C19 = CYP2C19 (Homo sapiens, UniProt P33261); test: Early toxicity: CYP2C19 inhibition; format: in vitro ADME; conditions: Table 4a; for inhibition at 10 µM: human
# A549 = test: Early toxicity: A549 cell growth; format: cell-based; conditions: 10 μM; 100% = not cytotoxic, 0% = cytostatic, −100% = cytotoxic
# CYP1A2 = target: T1, CYP1A2 (Homo sapiens, UniProt P05177); test: Early toxicity: CYP1A2 inhibition; format: in vitro ADME; conditions: mean ± SD, Table 4a; for inhibition at 10 µM: human
# T1 sequence (P05177 1-516): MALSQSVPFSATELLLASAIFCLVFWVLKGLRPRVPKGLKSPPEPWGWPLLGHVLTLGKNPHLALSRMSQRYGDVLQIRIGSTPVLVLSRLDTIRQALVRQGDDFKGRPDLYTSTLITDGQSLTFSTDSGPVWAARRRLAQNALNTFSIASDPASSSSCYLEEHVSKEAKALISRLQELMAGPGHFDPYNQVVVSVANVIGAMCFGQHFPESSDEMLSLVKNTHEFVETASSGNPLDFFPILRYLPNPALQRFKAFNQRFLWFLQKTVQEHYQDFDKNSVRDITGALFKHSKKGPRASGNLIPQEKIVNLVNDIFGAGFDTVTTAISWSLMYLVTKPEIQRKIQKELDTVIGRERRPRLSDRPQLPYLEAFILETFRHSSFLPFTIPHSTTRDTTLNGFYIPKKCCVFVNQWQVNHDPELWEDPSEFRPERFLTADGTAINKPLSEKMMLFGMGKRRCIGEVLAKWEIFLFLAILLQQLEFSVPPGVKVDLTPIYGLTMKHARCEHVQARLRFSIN
# CYP3A4 = CYP3A4 (Homo sapiens, UniProt P08684); test: Early toxicity: CYP3A4 inhibition; format: in vitro ADME; conditions: Table 4a; for inhibition at 10 µM: human, read-out: % inhibition CYP3A4
# hERG channel = hERG channel (Homo sapiens, UniProt Q12809); test: Early toxicity: hERG inhibition; conditions: for inhibition at 10 µM: human
# T. b. brucei GVR35 = test: Stage II HAT mice model, live imaging; format: in vivo
# [3] = system: PMA-differentiated THP-1 cells; test: Toxicity MTT assay in PMA-differentiated THP-1 cells; format: cell-based, human; conditions: for CC50: read-out: Toxicity CC50 ± SD or NOAEL
# Text: as §1
# [4] = system: T. b. brucei L427 WT Blood-Stream Form; test: Anti-parasitic activity against T. b. brucei blood-stream form (resazurin 72 h assay); format: cell-based; conditions: Table 2; for inhibition at 10 µM: Trypanosoma brucei, read-out: Single Dose Assay 10 μM Mean Inhibitory Activity (%) ± SD
# [5] = Snapshot pharmacokinetics in plasma after oral gavage; format: in vivo, mice; conditions: mouse, plasma, po, healthy BALB/c mice, 20 mg/kg gavage, Table 13
# Experimental: Pharmacology of 5-cyclopentadecylpentyl (2-(trimethylammonio)ethyl) phosphate (19) in mice.
# Blood samples were collected from the tail vein at 0, 0.5, 0.75, 1, 3, 24 and 72 hours into heparinized tubes. Moreover, biodistribution of the molecule, 72h after administration, was determined in several organs of the treated mice, namely brain, liver, spleen, kidney, heart and bone marrow. […] J Chromatogr B, 865: 55-62) by liquid chromatography mass spectrometry (LC-MS/MS).
# W1-38 = test: Early toxicity: W1-38 cell growth; format: cell-based; conditions: 10 μM
# Chain of CYP2D6 (P10635 whole entry): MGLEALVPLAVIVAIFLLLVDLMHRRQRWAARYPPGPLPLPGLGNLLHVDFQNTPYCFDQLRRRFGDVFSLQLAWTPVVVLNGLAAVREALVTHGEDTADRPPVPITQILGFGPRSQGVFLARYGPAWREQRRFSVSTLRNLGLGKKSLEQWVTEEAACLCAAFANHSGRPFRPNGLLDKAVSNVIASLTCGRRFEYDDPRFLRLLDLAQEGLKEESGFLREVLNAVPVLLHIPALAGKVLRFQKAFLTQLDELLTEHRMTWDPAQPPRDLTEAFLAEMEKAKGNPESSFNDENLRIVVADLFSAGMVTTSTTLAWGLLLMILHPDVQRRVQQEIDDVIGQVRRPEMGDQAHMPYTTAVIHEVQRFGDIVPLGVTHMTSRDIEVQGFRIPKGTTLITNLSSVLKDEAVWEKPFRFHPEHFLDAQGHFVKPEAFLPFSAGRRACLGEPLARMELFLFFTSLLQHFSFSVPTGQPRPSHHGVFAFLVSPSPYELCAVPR
# Chain of CYP2C9 (P11712 whole entry): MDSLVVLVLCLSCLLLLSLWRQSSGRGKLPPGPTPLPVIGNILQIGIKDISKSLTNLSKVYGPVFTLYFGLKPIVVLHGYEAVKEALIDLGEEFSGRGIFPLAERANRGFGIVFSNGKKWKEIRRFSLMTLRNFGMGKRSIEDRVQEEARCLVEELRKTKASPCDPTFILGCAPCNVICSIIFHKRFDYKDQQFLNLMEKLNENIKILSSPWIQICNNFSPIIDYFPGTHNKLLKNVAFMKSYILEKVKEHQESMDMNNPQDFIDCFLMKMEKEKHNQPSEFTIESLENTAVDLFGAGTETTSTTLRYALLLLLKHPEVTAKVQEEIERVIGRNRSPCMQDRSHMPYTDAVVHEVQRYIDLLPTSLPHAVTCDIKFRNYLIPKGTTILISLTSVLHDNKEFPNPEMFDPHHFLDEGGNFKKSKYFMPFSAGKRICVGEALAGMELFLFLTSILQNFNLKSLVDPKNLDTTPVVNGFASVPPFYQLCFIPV
# Chain of hERG channel (Q12809 whole entry): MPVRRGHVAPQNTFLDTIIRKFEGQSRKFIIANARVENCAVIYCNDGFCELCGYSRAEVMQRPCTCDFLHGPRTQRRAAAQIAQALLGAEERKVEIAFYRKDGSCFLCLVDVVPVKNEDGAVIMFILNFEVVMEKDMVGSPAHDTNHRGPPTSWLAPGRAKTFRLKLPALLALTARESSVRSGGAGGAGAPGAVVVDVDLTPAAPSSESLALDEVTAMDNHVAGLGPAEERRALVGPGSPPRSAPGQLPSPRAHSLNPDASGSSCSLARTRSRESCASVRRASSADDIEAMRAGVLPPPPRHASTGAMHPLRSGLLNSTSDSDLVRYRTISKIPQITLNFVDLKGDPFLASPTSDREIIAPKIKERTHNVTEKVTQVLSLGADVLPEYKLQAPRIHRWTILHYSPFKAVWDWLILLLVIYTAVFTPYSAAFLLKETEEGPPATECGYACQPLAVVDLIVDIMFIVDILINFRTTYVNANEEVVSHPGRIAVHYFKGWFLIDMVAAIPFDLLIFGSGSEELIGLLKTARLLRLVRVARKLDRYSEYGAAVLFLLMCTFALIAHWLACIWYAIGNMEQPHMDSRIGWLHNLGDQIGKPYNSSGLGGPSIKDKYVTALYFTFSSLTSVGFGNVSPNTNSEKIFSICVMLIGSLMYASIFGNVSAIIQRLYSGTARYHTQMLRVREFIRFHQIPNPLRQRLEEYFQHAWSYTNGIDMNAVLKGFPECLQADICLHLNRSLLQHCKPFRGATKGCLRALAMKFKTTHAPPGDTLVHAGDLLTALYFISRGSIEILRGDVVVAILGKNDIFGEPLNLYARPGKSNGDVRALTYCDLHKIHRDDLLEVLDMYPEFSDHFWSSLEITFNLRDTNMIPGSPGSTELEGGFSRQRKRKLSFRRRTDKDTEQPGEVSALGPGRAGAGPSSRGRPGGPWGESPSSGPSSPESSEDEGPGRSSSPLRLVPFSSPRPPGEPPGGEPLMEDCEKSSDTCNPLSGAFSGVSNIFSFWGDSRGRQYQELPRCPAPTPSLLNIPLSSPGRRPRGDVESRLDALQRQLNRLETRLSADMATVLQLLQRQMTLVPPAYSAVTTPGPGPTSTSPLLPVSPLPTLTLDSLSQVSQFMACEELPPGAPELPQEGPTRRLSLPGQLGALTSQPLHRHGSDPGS
# Chain of CYP3A4 (P08684 whole entry): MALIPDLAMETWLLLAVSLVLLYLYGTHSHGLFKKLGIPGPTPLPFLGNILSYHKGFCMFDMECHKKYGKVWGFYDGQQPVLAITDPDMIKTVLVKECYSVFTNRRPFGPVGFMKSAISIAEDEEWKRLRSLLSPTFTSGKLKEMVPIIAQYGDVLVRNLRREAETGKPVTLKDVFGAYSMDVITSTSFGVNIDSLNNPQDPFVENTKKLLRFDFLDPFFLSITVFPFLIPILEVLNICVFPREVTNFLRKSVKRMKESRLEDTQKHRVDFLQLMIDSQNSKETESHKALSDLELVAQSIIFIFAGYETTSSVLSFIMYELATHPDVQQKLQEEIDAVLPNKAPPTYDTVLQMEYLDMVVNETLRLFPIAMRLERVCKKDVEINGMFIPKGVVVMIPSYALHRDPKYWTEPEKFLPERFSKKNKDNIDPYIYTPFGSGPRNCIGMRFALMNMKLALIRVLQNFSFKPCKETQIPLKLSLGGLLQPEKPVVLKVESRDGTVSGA
# Chain of CYP2C19 (P33261 whole entry): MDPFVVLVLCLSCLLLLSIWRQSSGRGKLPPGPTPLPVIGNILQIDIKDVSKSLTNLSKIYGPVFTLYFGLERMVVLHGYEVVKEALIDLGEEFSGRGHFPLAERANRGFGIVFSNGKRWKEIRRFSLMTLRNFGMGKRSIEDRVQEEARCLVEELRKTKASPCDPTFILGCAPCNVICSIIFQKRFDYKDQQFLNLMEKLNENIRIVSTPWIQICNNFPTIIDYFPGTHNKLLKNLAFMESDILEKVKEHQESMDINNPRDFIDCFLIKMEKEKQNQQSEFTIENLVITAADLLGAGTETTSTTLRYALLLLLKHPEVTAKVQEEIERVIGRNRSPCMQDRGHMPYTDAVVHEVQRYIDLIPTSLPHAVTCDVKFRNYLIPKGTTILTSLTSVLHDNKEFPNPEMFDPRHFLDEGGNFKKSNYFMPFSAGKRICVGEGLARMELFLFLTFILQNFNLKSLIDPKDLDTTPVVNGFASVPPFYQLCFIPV
Structure (SMILES),CC50 [1] [µM],IC50 [1] [µM],inhibition at 10 µM (CYP2C9) [%],inhibition at 10 µM ([2]; 10 μM) [%],inhibition at 10 µM (CYP2D6; mean ± SD) [%],% mitochondrial toxicity (mitochondria) [%],inhibition at 10 µM (CYP2C19; mean ± SD) [%],% cell growth A549 (A549) [%],inhibition at 10 µM (CYP1A2) [%],"inhibition at 10 µM (CYP3A4; 10 μM, mean ± SD) [%]","Flag for Interference, hERG (hERG channel; Table 4b)",inhibition at 10 µM (hERG channel) [%],CC50 ([3]; Table 2) [µM],IC50 [2] [µM],Selectivity Index CC50/IC50 or NOAEL/IC50 [2],mitochondrial toxicity (mitochondria),further results
"C[N+](C)(C)CCOP(=O)([O-])OCCC1CCCCCCCCCCC1 [Compound 27, 2-cyclododecylethyl (2-(trimethylammonio)ethyl) phosphate]",> 100,> 100,13.7 ± 6.52,36 ± 5,6.92 ± 4.21,113.87 ± 2.81,11 ± 5.72,126.46 ± 6.12,22.2 ± 1.59,24.8 ± 3.15,(no),-4.11 ± 10.4,–,–,–,–,–
"N=C(N)c1ccc(OCCCCCOc2ccc(C(=N)N)cc2)cc1 [pentamidine, reference compound]",–,–,–,–,–,–,–,–,–,–,–,–,–,–,–,–,infection in the brain (T. b. brucei GVR35; 5 mg/kg/day IP): not able to clear infection in the brain
"C[N+](C)(C)CCOP(=O)([O-])OCCCCC=C1CCCCCCCCCCC1 [Compound 12, 5-cyclododecylidenepentyl (2-(trimethylammonio)ethyl) phosphate]",> 100,> 100,1.76 ± 1.59,95 ± 2,15.1 ± 2.98,113.57 ± 12.08,11.2 ± 5.4,130.21 ± 5.63,10.2 ± 5.03,35.7 ± 6.01,(no),-2.04 ± 7.61,> 100,0.9 ± 0.7,>111,exhibit mitochondrial toxicity,inhibition at 10 µM ([4]; 10 μM): 8 ± 8%
"C[N+](C)(C)CCOP(=O)([O-])OCCCC=C1CCCCCCCCCCC1 [Compound 11, 4-cyclododecylidenebutyl (2-(trimethylammonio)ethyl) phosphate]",> 100,–,–,76 ± 22,–,–,–,–,–,–,–,–,> 100,2.59 ± 0.94,>38.6,–,–
"C[N+](C)(C)CCOP(=O)([O-])OCCCCCC1CCCCCCCCCCC1 [Compound 17, 5-cyclododecylpentyl (2-(trimethylammonio)ethyl) phosphate]",> 100,> 100,10.3 ± 6.3,96 ± 2,48.9 ± 2.97,110.46 ± 13.08,35.9 ± 4.97,121.61 ± 8.94,18.9 ± 0.69,55.3 ± 4.28,(no),26.3 ± 12.9,> 100,0.6 ± 0.2,>166,exhibit mitochondrial toxicity,AUC(0-inf) ([5]; read-out: AUC (0-∞)): 11300 ng·h/mL; AUC(0-inf) ([5]; read-out: AUC (0-∞) (μM h/mL)): 26.9 µM·h; Cmax ([5]; read-out: Cmax): 4.88 µM; Cmax ([5]; read-out: Cmax (μg/mL)): 2.05 µg/mL; Tmax ([5]; read-out: tmax): 3 h; half-life ([5]; read-out: t½ (converted)): 6.9 h; CYP2D6 interaction / inhibition (CYP2D6; 10 μM): interact; also recorded: significant inhibition; CYP2C19 interaction / inhibition (CYP2C19; 10 μM): interact; also recorded: significant inhibition; CYP3A4 interaction (CYP3A4): interact; activity against T. b. brucei blood-stream form [4]: unexpectedly high activity in the low micromolar range; inhibition at 10 µM ([4]; 10 μM): 21 ± 15%
"Nc1nc(N)nc(Nc2ccc([As]3SCC(CO)S3)cc2)n1 (centres unmarked) [melarsoprol, reference compound]",–,–,–,–,–,–,–,–,–,–,–,–,–,–,–,–,"infection outcome (words) (T. b. brucei GVR35; 10 mg/kg/day IP, 7 days of treatment): able to clear the infection"
"C[N+](C)(C)CCCOP(=O)([O-])OCCCCCC1CCCCCCCCCCCCCC1 [Compound 20, 5-cyclonentadecyloentyl (3-(trimethylammonio)propyl) phosohate]",–,–,–,–,–,−3.82 ± 5.49,–,104.50 ± 4.67,–,–,(no),–,> 100,–,–,–,"CC50 ([3]; THP-1 macrophages, Table 1): > 100 µM; IC50 ([3]; Table 4b, read-out: Cytotoxicity THP-1 (IC50)): > 100 µM; % inhibition CYP2C9 (CYP2C9; 10 μM): 15.44 ± 0.53%; Single Dose Assay 10 μM Mean Inhibitory Activity (%) ± SD ([2]; 10 μM): 53 ± 6%; % inhibition CYP2D6 (CYP2D6; 10 μM, mean ± SD): 44.01 ± 3.51%; % cell growth W1-38 (W1-38): 98.77 ± 10.61%; % inhibition CYP2C19 (CYP2C19; 10 μM, mean ± SD): 52.28 ± 5.17%; % inhibition CYP1A2 (CYP1A2; 10 μM): 10.14 ± 3.87%; % inhibition CYP3A4 (CYP3A4; 10 μM, mean ± SD): 22.83 ± 5.05%; Single Dose Assay 10 μM Mean Inhibitory Activity (%) ± SD ([4]; 10 μM): 24 ± 10%; % inhibition hERG (hERG channel; 10 μM, Table 4b): 4.56 ± 15.55%"
"C[N+](C)(C)CCOP(=O)([O-])OCCCCC1CCCCCCCCCCC1 [Compound 16, 4-cyclododecylbutyl (2-(trimethylammonio)ethyl) phosphate]",> 100,–,–,87 ± 17,–,–,–,–,–,–,–,–,> 100,0.86 ± 0.33,>116,–,–
"C[N+](C)(C)CCOP(=O)([O-])OCCC1CCCCCCCCCCCCCC1 [Compound 28, 2-cyclopentadecylethyl (2-(trimethylammonio)ethyl) phosphate]",> 100,> 100,9.6 ± 4.6,70 ± 7,37.7 ± 3.27,119.09 ± 14.82,21.3 ± 3.7,120.79 ± 0.63,15.6 ± 2.12,27.8 ± 1.95,(no),39 ± 5.84,–,1.12 ± 0.45,>90,exhibit mitochondrial toxicity,–
